Source: patent US6723716B1, “7-acylamino-3-heteroarylthio-3-cephem carboxylic acid antibiotics and prodrugs thereof” (Essential Therapeutics, Inc., priority 1999, dated 2004)
Values after ≈ are worked out from the molar mass of the structure shown. Like-named read-outs stand apart in the source and are kept apart here.

Assays:
[1] = tested on: S. aureus ATCC29213; test: Human serum binding effect: MIC with and without human serum; assay type: cell-based, Staphylococcus aureus; details: 1:1 human serum:MHB
How it was run: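 Serum binding was estimated as the ratio of S. aureus ATCC29213 MIC in 1:1 human serum:Mueller-Hinton broth to MIC without serum. Compounds were serially 2-fold diluted, and wells received an early-log-phase inoculum at 1×10^6 CFU/mL final. Inoculum size was checked by colony counts on TSA after overnight incubation at 35 °C.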

[2] = tested on: E. faecium VanA (Van^R); test: Broth microdilution MIC (NCCLS); assay type: cell-based; details: Enterococcus faecium
Experimental: (§1) Compounds were evaluated for antimicrobial activity against a panel of bacterial strains using a broth microdilution assay performed as recommended by the NCCLS (1). The minimum inhibitory concentration (MIC) was defined as the lowest concentration of drug which prevented the growth of the bacteria.
(§2) For this primary panel, the assay was performed in Mueller-Hinton Broth (MHB) with a final bacterial inoculum of 5×10^5 CFU/mL (from an early-log phase culture) and a final volume of 100 μL. Control drugs, including imipenem, vancomycin, Penicillin G, dicloxacillin (vs. MSSA ATCC29213 only), and new compounds were prepared at a concentration equivalent to 2-fold the desired final concentration. Dilution of compounds were prepared directly in the plates by serial 2-fold dilution using a multichannel pipette. Positive and negative growth control were included in each plate.
(§3) The bacterial inocula were prepared as follows. For each strain one isolated colony was used to inoculate a volume of 8 mL of Mueller-Hinton broth and these cultures were incubated overnight (20 h) at 35° C. in a shaking incubator. At the exception of Enterococcus strains, culture were then diluted 1:10 and allowed to grow for an additional one hour at 35° C. in a shaking incubator. The inocula were prepared by diluting the early log-phase (1 h) cultures 1:1000 with fresh Mueller-Hinton broth. E. faecium and E. faecalis were prepared by diluting overnight cultures 1:333 and 1:666, respectively, with fresh Mueller-Hinton broth. A volume of 50 μL of the inocula was added to each well. […] The exact inocula were determined by applying 10 μL of 10-fold serial dilution of the bacterial suspensions on TSA. After overnight incubation at 35° C., colony forming units were manually counted.
(§4) Microtiter plates were incubated during 24 h at 35° C. and were read using a microtiterplate reader (Molecular Devices) at 650 nm as well as by visual observation using a microtiterplate reading mirror.

[3] = tested on: S. aureus ATCC 29213; test: Broth microdilution MIC (NCCLS); assay type: cell-based; details: Staphylococcus aureus
Experimental: as §1, §2, §3, §4

[4] = tested on: E. coli ATCC25992; test: Broth microdilution MIC (NCCLS); assay type: cell-based; details: Escherichia coli
Experimental: as §1, §2, §3, §4

[5] = tested on: E. faecium A491 (Amp^R); test: Broth microdilution MIC (NCCLS); assay type: cell-based; details: Enterococcus faecium
Experimental: as §1, §2, §3, §4

[6] = tested on: S. aureus ATCC 13709 (Meth^S); test: Broth microdilution MIC (NCCLS); assay type: cell-based; details: Staphylococcus aureus
Experimental: as §1, §2, §3, §4

[7] = tested on: S. aureus PC1 (Meth^S)(lac^+); test: Broth microdilution MIC (NCCLS); assay type: cell-based; details: Staphylococcus aureus
Experimental: as §1, §2, §3, §4

[8] = tested on: S. aureus ATCC 33593 (Meth^R); test: Broth microdilution MIC (NCCLS); assay type: cell-based; details: Staphylococcus aureus, ATCC33593
Experimental: as §1, §2, §3, §4

[9] = tested on: E. faecalis ATCC 29212; test: Broth microdilution MIC (NCCLS); assay type: cell-based; details: Enterococcus faecalis, ATCC29212
Experimental: as §1, §2, §3, §4

[10] = tested on: E. faecalis VanB (Van^R); test: Broth microdilution MIC (NCCLS); assay type: cell-based; details: Enterococcus faecalis
Experimental: as §1, §2, §3, §4

[11] = tested on: P. aeruginosa ATCC 27853; test: Broth microdilution MIC (NCCLS); assay type: cell-based; details: Pseudomonas aeruginosa, ATCC27853
Experimental: as §1, §2, §3, §4

[12] = tested on: E. faecium ATCC 35667; test: Broth microdilution MIC (NCCLS); assay type: cell-based; details: Enterococcus faecium, ATCC35667
Experimental: as §1, §2, §3, §4

[13] = tested on: S. aureus Col (Meth^R)(lac^−); test: Broth microdilution MIC (NCCLS); assay type: cell-based; details: Staphylococcus aureus
Experimental: as §1, §2, §3, §4

[14] = tested on: S. aureus Spain #356 (Meth^R); test: Broth microdilution MIC (NCCLS); assay type: cell-based; details: Staphylococcus aureus, 24 h
Experimental: as §1, §2, §3, §4

[15] = tested on: S. aureus 76 (Meth^R)(lac^+); test: Broth microdilution MIC (NCCLS); assay type: cell-based; details: Staphylococcus aureus
Experimental: as §1, §2, §3, §4

[16] = tested on: S. aureus Col8A (Meth^S)(lac^−); test: Broth microdilution MIC (NCCLS); assay type: cell-based; details: Staphylococcus aureus
Experimental: as §1, §2, §3, §4

[17] = tested on: S. haemolyticus 05 (Meth^R); test: Broth microdilution MIC (NCCLS); assay type: cell-based; details: Staphylococcus haemolyticus
Experimental: as §1, §2, §3, §4

[18] = tested on: human serum proteins; test: Serum binding determination by ultrafiltration/HPLC; assay type: in vitro ADME; details: by HPLC
Experimental: The more accurate measurement of binding of selected cephalosporin compounds was performed using HPLC as described below.
1. Serum is placed in a shaking water bath preheated to 37±2° C. for 5 to 10 minutes to heat serum to 37° C. Serum pH is measured and recorded, while serum is 37° C. using pH paper. Measurements are taken twice, 3 minutes apart. If the pH is not 7.4±0.4 then the pH is adjusted by blowing 5% CO2/95% O2 over the serum. After blowing for several minutes, serum is heated to 37° C. and measurements are taken twice, 3 minutes apart using pH paper to determine the pH. Store at 4° C. The serum is stable for 7 days. Always check the pH before each use.
2. Before any centrifugation, the centrifuge temperature must be adjusted to 25±2° C. Preheat the centrifuge by spinning for 45 minutes at the same speed to be used in the assay (1900 g) with two tubes of water in the rotor and the temperature set to 25° C. When the centrifuge stops immediately check the temperature of the tubes of water with a calibrated thermometer. The temperature of the tubes of water must be 25±2° C. […] Continue spinning and measuring the temperature and adjusting the setting until the temperature is 25±2° C.
3. Prepare blank ultrafiltrate by pipetting blank pH 7.4 serum into an Amicon Centrifree Micropartition devices, centrifuge: fixed angle rotor, 1900 g, 25° C. for 20 minutes. Heat ultrafiltrate in a shaking water bath preheated to 37° C. Measure ultrafiltrate pH and adjust to the pH of the serum (7.4±0.2).
4. Pipette 190 ul of blank ultrafiltrate into a set of labeled 1.7 mL polypropylene microfuge tubes for 3 of each level. Pipette 10 μL of the appropriate standard stock 50, 200, 1000 μg/mL to make standards 2.5, 10, and 50 μg/mL respectively. Vortex each tube well. One set of the standard samples are mixed 1:1 with 0.2 M acetic acid and injected onto the HPLC (MSTD). These samples are the membrane standards and will be used to compare to the other standards. Pipette 190 ul of ultrafiltrate and spike with 10 ul of whatever solution (e.g. water) the standards are prepared in to make the zero standard.
5. Pipette 475 μL of blank heated pH 7.4 serum into a set of labeled 1.7 mL polypropylene microfuge tubes for 2 of each (Serum A and Serum B). Pipette 25 μL of the 1000 μg/mL standard stock into each tube, vortex each tube well to make serum standard 50 μg/mL. Remove 100 μL of serum and deproteinate with 200 μL 4% TCA while vortexing to make serum time 0 (serum 50, T0). Place serum tubes in a shaking water bath at 37° C. for 10 minutes. Pipet 100 μL of serum out and deproteinate with 200 μL 4% TCA, to make serum time 10 min (serum 50, T10). Pipet 200 ul serum standard 50 μg/mL into an ultrafiltration device, which is not treated with TCA, to determine free drug in samples (Rat Serum 50).
6. Transfer serum and standard samples to labeled Amicon Centrifree Micropartition filters, and centrifuge: 1900 g, 25° C. for 10 minutes. The extracted serum samples (T0 and T10) are spun down and supernatant is loaded into HPLC vials.
7. 100 μL of ultrafiltrate sample and 100 μL of 0.2 M acetic acid were mixed together to stabilize the compound in ultrafiltrate.
8. Transfer entire stabilized ultrafiltrate solution to a labeled autoinjector HPLC vial cap with Teflon septa, and inject on HPLC.
Peak height or area is used in a weighted linear regression.

[19] = ATCC29213, S. aureus ATCC 29213, Mueller-Hinton broth, 24 h at 35° C., read-out: MIC
[20] = ATCC13709, S. aureus ATCC 13709 (Meth^S), read-out: MIC

Row | SMILES | Human serum binding effect (ratio of MIC value determined with and without human serum added) [1] | MIC [2] | MIC [3, 19] | MIC [4] | MIC [5] | MIC [6, 20] | MIC [7] | MIC [8] | MIC [9] | MIC [10] | MIC [11] | MIC [12] | MIC [13] | MIC [14] | MIC [15] | MIC [16] | MIC [17] | Serum Binding human (% of compound bound to serum) [18] | MIC ([3]; ATCC29213, 24 h) | MIC ([6]; ATCC13709)
1 | NCCNc1nc(CSCCN)c(SC2=C(C(=O)O)N3C(=O)[C@@H](NC(=O)/C(=N\O)c4nc(N)sc4Cl)[C@H]3SC2)s1 [Cmpd 16, (7R)-7-[(Z)-2-(2-amino-5-chlorothiazol-4-yl)-2-(hydroxyimino)acetamido]-3-[4-(2-aminoethylthiomethyl)-2-aminoethylamino-1,3-thiazol-5-ylthio]-3-cephem-4-carboxylic acid] | 1 | 4 µg/mL (≈ 6 µM) | 0.13 µg/mL (≈ 0.195 µM) | 4 µg/mL (≈ 6 µM) | 16 µg/mL (≈ 24 µM) | 0.13 µg/mL (≈ 0.195 µM) | 0.13 µg/mL (≈ 0.195 µM) | 1 µg/mL (≈ 1.5 µM) | 0.06 µg/mL (≈ 0.0901 µM) | 0.06 µg/mL (≈ 0.0901 µM) | 1 µg/mL (≈ 1.5 µM) | 0.5 µg/mL (≈ 0.75 µM) | 1 µg/mL (≈ 1.5 µM) | 1 µg/mL (≈ 1.5 µM) | 1 µg/mL (≈ 1.5 µM) | 0.25 µg/mL (≈ 0.375 µM) | 1 µg/mL (≈ 1.5 µM) |  |  | 
2 | NCCSCc1ccncc1SC1=C(C(=O)O)N2C(=O)[C@@H](NC(=O)/C(=N\O)c3cccc(N)n3)[C@H]2SC1 [Cmpd 28, (7R)-7-[(Z)-2-(2-aminopyrid-6-yl)-2-(hydroxyimino)acetamido]-3-[4-(2-aminoethylthiomethyl)pyrid-3-ylthio]-3-cephem-4-carboxylic acid] |  | 8 µg/mL (≈ 14.2 µM) | 0.5 µg/mL (≈ 0.89 µM) | 32 µg/mL (≈ 57 µM) | > 32 µg/mL | 0.13 µg/mL (≈ 0.231 µM) | 0.5 µg/mL (≈ 0.89 µM) | 8 µg/mL (≈ 14.2 µM) | 0.5 µg/mL (≈ 0.89 µM) | 2 µg/mL (≈ 3.56 µM) | > 32 µg/mL | 4 µg/mL (≈ 7.12 µM) | 8 µg/mL (≈ 14.2 µM) | 8 µg/mL (≈ 14.2 µM) | 8 µg/mL (≈ 14.2 µM) | 0.25 µg/mL (≈ 0.445 µM) | 16 µg/mL (≈ 28.5 µM) |  |  | 
3 | NCCSCc1nc(Cl)sc1SC1=C(C(=O)O)N2C(=O)[C@@H](NC(=O)/C(=N\O)c3cccc(N)n3)[C@H]2SC1 [Cmpd 29, (7R)-7-[(Z)-2-(2-aminopyrid-6-yl)-2-(hydroxyimino)acetamido]-3-[2-chloro-4-(2-aminoethylthiomethyl)-1,3-thiazol-5-ylthio]-3-cephem-4-carboxylic acid] |  | 4 µg/mL (≈ 6.64 µM) |  | 16 µg/mL (≈ 26.6 µM) | > 32 µg/mL |  | 0.25 µg/mL (≈ 0.415 µM) | 1 µg/mL (≈ 1.66 µM) | 0.25 µg/mL (≈ 0.415 µM) | 0.5 µg/mL (≈ 0.83 µM) | > 32 µg/mL | 2 µg/mL (≈ 3.32 µM) | 1 µg/mL (≈ 1.66 µM) | 2 µg/mL (≈ 3.32 µM) | 1 µg/mL (≈ 1.66 µM) | 0.125 µg/mL (≈ 0.208 µM) | 2 µg/mL (≈ 3.32 µM) | 97% | 0.125 µg/mL (≈ 0.208 µM) | 0.125 µg/mL (≈ 0.208 µM)
